Species on record: Rattus norvegicus
Assay: DrugMatrix - Regimen: Daily Repeat
Type: toxicity, organism-based, Sprague-Dawley
Parameters: regimen Daily Repeat, gender Male, age 6-8 weeks
Conditions: in vivo, po, route oral GAVAGE, vehicle 100 % WATER; for ABSOLUTE BASOPHIL / ABSOLUTE EOSINOPHIL / ABSOLUTE LYMPHOCYTE / ABSOLUTE MONOCYTE / ABSOLUTE SEGMENTED NEUTROPHIL / BASOPHIL / EOSINOPHIL / ERYTHROCYTE COUNT / HEMATOCRIT / HEMOGLOBIN / LEUKOCYTE COUNT / LYMPHOCYTE / MEAN CORPUSCULAR HEMOGLOBIN / MEAN CORPUSCULAR HEMOGLOBIN CONCENTRATION / MEAN CORPUSCULAR VOLUME / MONOCYTE / NEUTROPHIL / NUCLEATED RED BLOOD CELLS / PLATELET COUNT: tissue Blood; for ALANINE AMINOTRANSFERASE / ALBUMIN / ALKALINE PHOSPHATASE / ASPARTATE AMINOTRANSFERASE / BLOOD UREA NITROGEN / CARBON DIOXIDE / CHLORIDE / CHOLESTEROL / CREATINE PHOSPHOKINASE / CREATININE / GLUCOSE / LACTATE DEHYDROGENASE / LIPASE / PHOSPHORUS / POTASSIUM / SODIUM / TOTAL BILIRUBIN / TOTAL PROTEIN / URIC ACID: tissue Plasma
[1] = 39 mg/kg, 120 h, dose level Low, time 5 day
[2] = 150 mg/kg, 72 h, dose level High, time 3 day
[3] = 150 mg/kg, 120 h, dose level High, time 5 day

C[C@]12Cc3c[nH]nc3C[C@@H]1CC[C@@H]1[C@@H]2CC[C@@]2(C)[C@H]1CC[C@]2(C)O [STANOZOLOL]
ABSOLUTE BASOPHIL [1]: 0 CELLS/uL | ABSOLUTE EOSINOPHIL [1]: 55.33 CELLS/uL | ABSOLUTE LYMPHOCYTE [1]: 11411 CELLS/uL | ABSOLUTE MONOCYTE [1]: 142 CELLS/uL | ABSOLUTE SEGMENTED NEUTROPHIL [1]: 1025 CELLS/uL | BASOPHIL [1]: 0% | EOSINOPHIL [1]: 0.33% | ERYTHROCYTE COUNT [1]: 5.64 x10E6/uL | HEMATOCRIT [1]: 35.63% | HEMOGLOBIN [1]: 13.63 G/DL | LEUKOCYTE COUNT [1]: 12.63 x10E3/uL | LYMPHOCYTE [1]: 90.33% | MEAN CORPUSCULAR HEMOGLOBIN [1]: 24.33 pg | MEAN CORPUSCULAR HEMOGLOBIN CONCENTRATION [1]: 38.33 G/DL | MEAN CORPUSCULAR VOLUME [1]: 63.43 fL | MONOCYTE [1]: 1.33% | NEUTROPHIL [1]: 8% | NUCLEATED RED BLOOD CELLS [1]: 0.67 /100WBC | PLATELET COUNT [1]: 1199.33 x10E3/uL | ALANINE AMINOTRANSFERASE [1]: 55.67 u/L | ALBUMIN [1]: 3.87 G/DL | ALKALINE PHOSPHATASE [1]: 492.33 u/L | ASPARTATE AMINOTRANSFERASE [1]: 81.67 u/L | BLOOD UREA NITROGEN [1]: 13.33 mg/dL | CARBON DIOXIDE [1]: 32.67 mmol/L | CHLORIDE [1]: 98.67 MEQ/L | CHOLESTEROL [1]: 35 mg/dL | CREATINE PHOSPHOKINASE [1]: 259.67 u/L | CREATININE [1]: 0.16 mg/dL | GLUCOSE [1]: 144 mg/dL | LACTATE DEHYDROGENASE [1]: 113 u/L | LIPASE [1]: 8 u/L | PHOSPHORUS [1]: 10.33 mg/dL | POTASSIUM [1]: 5.69 MEQ/L | SODIUM [1]: 144.47 MEQ/L | TOTAL BILIRUBIN [1]: 0.2 mg/dL | TOTAL PROTEIN [1]: 6.07 G/DL | URIC ACID [1]: 0.33 mg/dL | ABSOLUTE BASOPHIL [2]: 0 CELLS/uL | ABSOLUTE EOSINOPHIL [2]: 39.67 CELLS/uL | ABSOLUTE LYMPHOCYTE [2]: 9030.67 CELLS/uL | ABSOLUTE MONOCYTE [2]: 107.33 CELLS/uL | ABSOLUTE SEGMENTED NEUTROPHIL [2]: 755.67 CELLS/uL | BASOPHIL [2]: 0% | EOSINOPHIL [2]: 0.33% | ERYTHROCYTE COUNT [2]: 6.43 x10E6/uL | HEMATOCRIT [2]: 39.27% | HEMOGLOBIN [2]: 14.53 G/DL | LEUKOCYTE COUNT [2]: 9.93 x10E3/uL | LYMPHOCYTE [2]: 91% | MEAN CORPUSCULAR HEMOGLOBIN [2]: 22.63 pg | MEAN CORPUSCULAR HEMOGLOBIN CONCENTRATION [2]: 37.07 G/DL | MEAN CORPUSCULAR VOLUME [2]: 61.07 fL | MONOCYTE [2]: 1% | NEUTROPHIL [2]: 7.67% | NUCLEATED RED BLOOD CELLS [2]: 0.33 /100WBC | PLATELET COUNT [2]: 951 x10E3/uL | ALANINE AMINOTRANSFERASE [2]: 74 u/L | ALBUMIN [2]: 4.1 G/DL | ALKALINE PHOSPHATASE [2]: 493.67 u/L | ASPARTATE AMINOTRANSFERASE [2]: 138.33 u/L | BLOOD UREA NITROGEN [2]: 12.67 mg/dL | CARBON DIOXIDE [2]: 34.33 mmol/L | CHLORIDE [2]: 96.5 MEQ/L | CHOLESTEROL [2]: 46.67 mg/dL | CREATINE PHOSPHOKINASE [2]: 1177 u/L | CREATININE [2]: 0.14 mg/dL | GLUCOSE [2]: 134.33 mg/dL | LACTATE DEHYDROGENASE [2]: 200 u/L | LIPASE [2]: 11 u/L | PHOSPHORUS [2]: 11.53 mg/dL | POTASSIUM [2]: 6.12 MEQ/L | SODIUM [2]: 142.35 MEQ/L | TOTAL BILIRUBIN [2]: 0.33 mg/dL | TOTAL PROTEIN [2]: 6.33 G/DL | URIC ACID [2]: 0.5 mg/dL | ABSOLUTE BASOPHIL [3]: 0 CELLS/uL | ABSOLUTE EOSINOPHIL [3]: 31.33 CELLS/uL | ABSOLUTE LYMPHOCYTE [3]: 9499.67 CELLS/uL | ABSOLUTE MONOCYTE [3]: 0 CELLS/uL | ABSOLUTE SEGMENTED NEUTROPHIL [3]: 1135.67 CELLS/uL | BASOPHIL [3]: 0% | EOSINOPHIL [3]: 0.33% | ERYTHROCYTE COUNT [3]: 6.28 x10E6/uL | HEMATOCRIT [3]: 37.87% | HEMOGLOBIN [3]: 14.4 G/DL | LEUKOCYTE COUNT [3]: 10.67 x10E3/uL | LYMPHOCYTE [3]: 88.67% | MEAN CORPUSCULAR HEMOGLOBIN [3]: 22.93 pg | MEAN CORPUSCULAR HEMOGLOBIN CONCENTRATION [3]: 38.03 G/DL | MEAN CORPUSCULAR VOLUME [3]: 60.33 fL | MONOCYTE [3]: 0% | NEUTROPHIL [3]: 11% | NUCLEATED RED BLOOD CELLS [3]: 0 /100WBC | PLATELET COUNT [3]: 1393.33 x10E3/uL | ALANINE AMINOTRANSFERASE [3]: 46 u/L | ALBUMIN [3]: 3.87 G/DL | ALKALINE PHOSPHATASE [3]: 445.33 u/L | ASPARTATE AMINOTRANSFERASE [3]: 64.67 u/L | BLOOD UREA NITROGEN [3]: 16 mg/dL | CARBON DIOXIDE [3]: 32.33 mmol/L | CHLORIDE [3]: 99 MEQ/L | CHOLESTEROL [3]: 12.33 mg/dL | CREATINE PHOSPHOKINASE [3]: 238.67 u/L | CREATININE [3]: 0.14 mg/dL | GLUCOSE [3]: 131.33 mg/dL | LACTATE DEHYDROGENASE [3]: 117.33 u/L | LIPASE [3]: 7.67 u/L | PHOSPHORUS [3]: 11.13 mg/dL | POTASSIUM [3]: 5.01 MEQ/L | SODIUM [3]: 144.1 MEQ/L | TOTAL BILIRUBIN [3]: 0.1 mg/dL | TOTAL PROTEIN [3]: 5.8 G/DL | URIC ACID [3]: 0.3 mg/dL

— ChEMBL document CHEMBL3885881, “DrugMatrix”
